Where “and” joins values, the source holds several entries; their conditions need not be identical. Equal entries are not always repeated. Structures can show the parent of a compound that is named as a salt. Where two headings read alike, the source gives them in different places.
Key:
[1] = biological target: purified PARP protein (Homo sapiens, UniProt P09874); assay: PARP enzyme inhibition assay; type: biochemical
[2] = [32P]NAD+ incorporation, 500 μM NAD+, 25° C., two values in a cell = tested twice, read-out: Inhibition Constant Ki

purified PARP protein, sequence (P09874 whole entry): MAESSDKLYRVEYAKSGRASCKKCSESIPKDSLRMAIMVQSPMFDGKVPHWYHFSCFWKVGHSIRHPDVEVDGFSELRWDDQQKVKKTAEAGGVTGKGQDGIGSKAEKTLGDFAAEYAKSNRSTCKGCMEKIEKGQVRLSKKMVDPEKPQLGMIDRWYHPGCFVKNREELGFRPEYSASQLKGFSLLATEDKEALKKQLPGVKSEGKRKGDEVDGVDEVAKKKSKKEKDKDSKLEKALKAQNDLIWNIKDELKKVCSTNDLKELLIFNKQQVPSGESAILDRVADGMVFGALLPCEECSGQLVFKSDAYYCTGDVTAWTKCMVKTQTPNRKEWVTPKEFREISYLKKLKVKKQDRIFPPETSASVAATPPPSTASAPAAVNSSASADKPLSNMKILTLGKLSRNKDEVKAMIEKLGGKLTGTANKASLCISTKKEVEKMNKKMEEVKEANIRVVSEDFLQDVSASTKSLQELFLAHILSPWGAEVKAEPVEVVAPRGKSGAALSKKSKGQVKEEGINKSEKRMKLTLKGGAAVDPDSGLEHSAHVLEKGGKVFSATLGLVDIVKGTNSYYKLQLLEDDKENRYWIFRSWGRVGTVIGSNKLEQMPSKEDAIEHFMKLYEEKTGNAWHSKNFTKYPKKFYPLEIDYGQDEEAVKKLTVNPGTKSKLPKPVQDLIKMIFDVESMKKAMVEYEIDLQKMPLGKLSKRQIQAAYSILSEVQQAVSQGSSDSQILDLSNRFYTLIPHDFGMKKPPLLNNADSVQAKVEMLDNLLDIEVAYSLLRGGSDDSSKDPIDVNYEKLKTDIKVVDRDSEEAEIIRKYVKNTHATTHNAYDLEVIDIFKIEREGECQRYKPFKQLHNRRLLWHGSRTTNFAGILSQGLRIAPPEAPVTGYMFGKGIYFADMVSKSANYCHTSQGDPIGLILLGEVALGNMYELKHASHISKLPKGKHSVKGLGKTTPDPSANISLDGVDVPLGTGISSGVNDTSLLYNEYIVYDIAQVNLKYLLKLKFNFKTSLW

Row | Ki [1, 2] | melting point | Ki ([1]; Inhibition Constant Ki) [nM] | SMILES
1 | 45 nM | – | – | O=C1NCC(c2ccccc2)c2c[nH]c3cccc1c23 (racemic) [Compound 20, (rac)-3-Phenyl-3,4,5,6-tetrahydro-1H-azepino[5,4,3-cd]indol-6-one]
2 | 61 nM | – | – | COc1ccc(C2CNC(=O)c3cccc4[nH]cc2c34)cc1 (racemic) [RRRR, (rac)-3-(4-Methoxyphenyl)-3,4,5,6-tetrahydro-1H-azepino[5,4,3-cd]indol-6-one]
3 | 11.4 nM | 201 to 201.5 °C | – | COC(=O)CCc1ccccc1-c1[nH]c2cccc3c2c1CCNC3=O [AAA, 3-[2-(6-Oxo-3,4,5,6-tetrahydro-1H-azepino[5,4,3-cd]indol-2-yl)-phenyl]-propionic acid methyl ester]
4 | 1.1 nM | – | – | O=C1NN=Cc2c(-c3ccc(F)cc3)[nH]c3cccc1c23 [AAAA]
5 | 20 nM | 233.5 to 234.5 °C | – | O=C1NCCc2c(-c3ccccc3CCCO)[nH]c3cccc1c23 [BBB, 2-[2-(3-Hydroxy-propyl)-phenyl]-1,3,4,5-tetrahydro-azepino[5,4,3-cd]indol-6-one]
6 | – | 220.5 to 222.5 °C | – | O=C1NCCc2c(-c3cccs3)[nH]c3cccc1c23 [BBBB, 2-Thiophen-2-yl-1,3,4,5-tetrahydro-azepino[5,4,3-cd]indol-6-one]
7 | 7.3 nM | 300 °C (dec.) | – | O=C1NCCc2c(-c3ccc(O)cc3)[nH]c3cccc1c23 [CCC, 2-(4-Hydroxy-phenyl)-1,3,4,5-tetrahydro-azepino[5,4,3-cd]indol-6-one]
8 | 4.8 nM | 255 to 256 °C | – | O=C1NCCc2c(-c3ccsc3)[nH]c3cccc1c23 [CCCC, 2-Thiophen-3-yl-1,3,4,5-tetrahydro-azepino[5,4,3-cd]indol-6-one]
9 | 2.8 nM | – | – | O=C1NCc2c(-c3ccccc3)[nH]c3cccc1c23 [Compound 3, Phenyl-3,4-dihydropyrrolo[4,3,2-de]isoquinolin-5-(1H)-one]
10 | 7.3 nM | – | – | O=C1NCCc2c(Br)[nH]c3cccc1c23 [Compound 11, 2-Bromo-3,4,5,6-tetrahydro-1H-azepino[5,4,3-cd]indol-6-one]
11 | 1.4 nM | – | – | O=C1NCCc2c(-c3cccc([N+](=O)[O-])c3)[nH]c3cccc1c23 [Compound 14, 2-(3-Nitrophenyl)-3,4,5,6-tetrahydro-1H-azepino[5,4,3-cd]indol-6-one]
12 | 6.5 nM | – | – | O=C1NCCc2c(C#Cc3ccccc3)[nH]c3cccc1c23 [Compound 17]
13 | > 1000 nM | – | – | Cn1c(-c2ccccc2)c2c3c(cccc31)C(=O)NCC2 [Compound 18, 1-Methyl-2-phenyl-3,4,5,6-tetrahydro-1H-azepino[5,4,3-cd]indol-6-one]
14 | – | 175 to 177 °C | – | CN1CCc2c(-c3ccccc3)n(C)c3cccc(c23)C1=O [Compound 18a, 1,5-dimethyl-2-phenyl-3,4,5,6-tetrahydro-1H-azepino[5,4,3-cd]indol-6-one]
15 | 4 nM | – | – | CN(C)Cc1cccc(-c2[nH]c3cccc4c3c2CNC4=O)c1 [Compound 25]
16 | 22 nM and 18 nM | – | – | O=C1NCCc2c(-c3ccccc3)[nH]c3cc(Br)cc1c23 [Compound 26, 8-Bromo-2-phenyl-3,4,5,6-tetrahydro-1H-azepino[5,4,3-cd]indol-6-one]
17 | 3.8 nM and 5.8 nM | – | – | O=C1NCCc2c(-c3ccc(F)c(Cl)c3)[nH]c3cccc1c23 [Compound 35, 2-(3-Chloro-4-fluoro-phenyl)-1,3,4,5-tetrahydro-azepino[5,4,3-cd]indol-6-one]
18 | – | 305 °C (dec.) | – | O=C1NCCc2c(-c3cccc4ccccc34)[nH]c3cccc1c23 [Compound 41, 2-Naphthalen-1-yl-1,3,4,5-tetrahydro-azepino[5,4,3-cd]indol-6-one]

Row | Ki [1, 2] | melting point | Ki ([1]; Inhibition Constant Ki) [nM] | SMILES
19 | 2.6 nM | – | – | O=C1NCCc2c(I)[nH]c3cccc1c23 [Compound 43, 2-Iodo-1,3,4,5-tetrahydro-azepino[5,4,3-cd]indol-6-one]
20 | 26 nM | – | – | O=C1NCCc2c(-c3[nH]c4cccc5c4c3CCNC5=O)[nH]c3cccc1c23 [Compound TTT, 1,3,4,5,1′,3′,4′,5′-Octahydro-[2,2′]bi[azepino[5,4,3-cd]indolyl]-6,6′-dione]
21 | – | – | 7.7 | O=C1NCCc2c(-c3ccc[nH]3)[nH]c3cccc1c23 [DDDD, 2-(1H-Pyrrol-2-yl)-1,3,4,5-etatrhydro-azepino[5,4,3-cd]indol-6-one]
22 | – | 260.5 to 262 °C | – | O=C1NCCc2c(-c3cccnc3)[nH]c3cccc1c23 [HHH, 2-Pyridin-3-yl-1,3,4,5-tetrahydro-azepino[5,4,3-cd]indol-6-one]
23 | 222 nM | – | – | O=C(O)c1[nH]c2cccc3c2c1CCNC3=O [KKK, 6-Oxo-3,4,5,6-tetrahydro-1H-azepino[5,4,3-cd]indole-2-carboxylic acid sodium salt]
24 | – | 320 to 322 °C (dec.) | – | O=C(Nc1ccccc1)c1[nH]c2cccc3c2c1CCNC3=O [KKKK, 6-Oxo-1,3,4,5-tetrahydro-1H-azepino[5,4,3-cd]indole-2-carboxylic Acid Phenylamide]
25 | 8.6 nM | – | – | O=C(Nc1ccc(Cl)cc1)c1[nH]c2cccc3c2c1CCNC3=O [LLLL, 6-Oxo-1,3,4,5-tetrahydro-1H-azepino[5,4,3-cd]indole-2-carboxylic acid (4-chlorophenyl)-amide]
26 | 16 nM | – | – | O=C(Nc1ccc2ccccc2c1)c1[nH]c2cccc3c2c1CCNC3=O [MMMM, 6-Oxo-1,3,4,5-tetrahydro-1H-azepino[5,4,3-cd]indole-2-carboxylic Acid naphthalen-2-ylamide]
27 | 172 nM | – | – | CC(=O)Nc1ccc(F)cc1-c1[nH]c2cccc3c2c1CCNC3=O [NNN, N-[4-Fluoro-2-(6-oxo-3,4,5,6-tetrahydro-1H-azepino[5,4,3-cd]indol-2-yl)-phenyl]-acetamide]
28 | 21 nM | – | – | O=C(NC1CC1)c1[nH]c2cccc3c2c1CCNC3=O [QQQQ, 6-Oxo-1,3,4,5-tetrahydro-1H-azepino[5,4,3-cd]indole-2-carboxylic Acid Cyclopropylamide]
29 | 6.9 nM | – | – | Nc1cccc(-c2[nH]c3cccc4c3c2CCNC4=O)c1 [RR, 2-(3-Aminophenyl)-3,4,5,6-tetrahydro-1H-azepino[5,4,3-cd]indol-6-one]
30 | 19 nM | – | – | O=C1NCCc2c(-c3cccc(CN4CCOCC4)c3)[nH]c3cccc1c23 [SSSS, 2-(3-Morpholin-4-ylmethylphenyl)-3,4,5,6-tetrahydro-1H-azepino[5,4,3-cd]indol-6-one]
31 | – | 315 to 317 °C (dec.) | – | O=C1NCCc2c(-c3ccc4[nH]ccc4c3)[nH]c3cccc1c23 [VVV, 2-(1H-Indol-5-yl)-1,3,4,5-tetrahydro-azepino[5,4,3-cd]indol-6-one]
32 | 5.7 nM | – | – | O=C1NCCc2c(-c3ccc(CO)cc3)[nH]c3cccc1c23 [WWWW, 2-(4-Hydroxymethylphenyl)-3,4,5,6-tetrahydro-1H-azepino[5,4,3-cd]indol-6-one]
33 | 9 nM | – | – | O=C1NN=C(c2ccc(C(F)(F)F)cc2)c2c[nH]c3cccc1c23 [YYYY]
34 | 0.7 nM | – | – | O=C1NN=Cc2c(-c3ccc(Cl)cc3)[nH]c3cccc1c23 [ZZZ, (4-Chloro-phenyl)-1,5-dihydro-[1,2]diazepino[4,5,6-cd]indol-6-one]
35 | 40 nM | – | – | O=C1NN=C(C(F)(F)C(F)(F)F)c2c[nH]c3cccc1c23 [ZZZZ, 1,5-Dihydro-3-pentafluoroethyl-[1,2]diazepino[4,5,6-cd]-indol-6-one]

Row | SMILES | Ki [1, 2] | melting point | Ki ([1]; Inhibition Constant Ki) [nM]
36 | O=C1NCCc2c[nH]c3cccc1c23 [Compound 10, 3,4,5,6-tetrahydro-1H-azepino[5,4,3-cd]indol-6-one] | 38 nM | – | –

From US7429578B2, “Tricyclic inhibitors of poly(ADP-ribose) polymerases” (Agouron Pharmaceuticals, Inc., priority 1999, dated 2008)
